Results: patent US20220016102A1, “ER PROTEIN REGULATORS AND USE THEREOF” (ShanghaiTech University, priority 2018, published 2022)

These compounds were tested against T1, ER protein (Homo sapiens, UniProt P03372) (assay: Western blotting analysis of ER protein degradation in T47D cell line). Settings: degradation of ER protein, T47D cells, drug treatment for 16 hours, Western blot gray values vs DMSO control; read-out: DC50 (nM)/T47Dcell line.
T1 sequence (P03372 1-595): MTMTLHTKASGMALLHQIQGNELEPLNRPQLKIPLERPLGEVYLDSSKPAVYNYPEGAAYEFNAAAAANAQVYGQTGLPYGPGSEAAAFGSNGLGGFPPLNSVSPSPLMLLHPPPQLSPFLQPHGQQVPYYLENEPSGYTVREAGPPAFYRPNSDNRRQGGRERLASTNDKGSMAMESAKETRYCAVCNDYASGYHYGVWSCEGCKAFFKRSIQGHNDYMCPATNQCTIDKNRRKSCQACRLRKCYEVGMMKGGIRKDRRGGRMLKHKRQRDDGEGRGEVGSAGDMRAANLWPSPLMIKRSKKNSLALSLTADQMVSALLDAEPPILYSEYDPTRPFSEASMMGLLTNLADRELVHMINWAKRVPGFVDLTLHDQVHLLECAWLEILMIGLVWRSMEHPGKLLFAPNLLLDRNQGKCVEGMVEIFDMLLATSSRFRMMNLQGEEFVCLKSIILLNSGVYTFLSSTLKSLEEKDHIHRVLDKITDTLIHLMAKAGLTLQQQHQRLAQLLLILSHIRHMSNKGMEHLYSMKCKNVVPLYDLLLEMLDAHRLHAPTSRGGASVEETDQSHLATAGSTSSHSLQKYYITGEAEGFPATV
Type: cell-based
Set-up: western blotting detection of the level of intracellular ER protein; endogenous in cells; host or cells: T47D
Protocol: T47D cells were cultured in an incubator with 5% CO2 at 37° C. Complete medium was RPMI1640 supplemented with 10% Foetal bovine serum (FBS), 100 U/ml Penicillin and Streptomycin, and 0.77 μg/mL recombinant human insulin. Western blotting analysis of T47D cell line: • Cells were plated in a 24-well plate at a cell seeding […] of 1.5×10^5 cells/mL, with 1 ml cell suspensions per well. • After 24 h the cells were adherent, and the cells in each well were treated with 1 μL a certain concentration of ER protein regulators of the present disclosure. […] Afterwards, the membranes were block by using the Blocking Buffer, and the antibody incubation and development were performed. (The above procedures were all based on the antibody product manual of the manufacturer) DC50 value (the drug concentration required for degrading proteins by 50%, abbreviated as DC50) reads method: comparing the gray values of the Western blotting bands for the drug treatment with the gray values of the Western blotting band for the DMSO control, and reading the drug concentration range corresponding to the gray value of the Western blotting bands for the drug treatment which is equal to half of the gray value of the Western blotting band for the DMSO control. DC50 value could also be calculated as follows: using software ImageJ to quantify the gray values of the Western blotting bands for the drug treatment, fitting the relationship curve between drug concentrations and gray values, and from the fitted curve, calculating the drug concentration corresponding to half of the gray value of the Western blotting band for the DMSO control.

| Structure (SMILES) | DC50 [nM] |
| --- | --- |
| CN(CCOc1ccc(/C(=C(/CCCl)c2ccccc2)c2ccccc2)cc1)C(=O)CCN1CCN(CCNc2cccc3c2C(=O)N(C2CCC(=O)NC2=O)C3=O)CC1 (stereo not shown) [SIAIS208135, (Z)-N-(2-(4-(4-chloro-1,2-diphenylbut-1-en-1-yl)phenoxy)ethyl)-3-(4-(2-((2-(2,6-dioxopiperidin-3-yl)-1,3-dioxoisoindolin-4-yl)amino)ethyl)piperazin-1-yl)-N-methylpropanamide] | < 200 |
| Cc1ncsc1-c1ccc(CNC(=O)[C@@H]2C[C@@H](O)CN2C(=O)[C@@H](NC(=O)CCOCCOCCC(=O)N2CCN(CCOc3ccc(C(=C(CCCl)c4ccccc4)c4ccc(O)cc4)cc3)CC2)C(C)(C)C)cc1 [SIAIS251049, (2S,4R)-1-((S)-2-(3-(2-(3-(4-(2-(4-(4-chloro-1-(4-hydroxyphenyl)-2-phenylbut-1-en-1-yl)phenoxy)ethyl)piperazin-1-yl)-3-oxopropoxy)ethoxy)propanamido)-3,3-dimethylbutanoyl)-4-hydroxy-N-(4-(4-methylthiazol-5-yl)benzyl)pyrrolidine-2-carboxamide] | < 50 |
| Cc1ncsc1-c1ccc(CNC(=O)[C@@H]2C[C@@H](O)CN2C(=O)[C@@H](NC(=O)CCOCCOCCOCCC(=O)N2CCN(CCOc3ccc(C(=C(CCCl)c4ccccc4)c4ccc(O)cc4)cc3)CC2)C(C)(C)C)cc1 [SIAIS251050, (2S,4R)-1-((S)-2-(tert-butyl)-16-(4-(2-(4-(4-chloro-1-(4-hydroxyphenyl)-2-phenylbut-1-en-1-yl)phenoxy)ethyl)piperazin-1-yl)-4,16-dioxo-7,10,13-trioxa-3-azahexadecanoyl)-4-hydroxy-N-(4-(4-methylthiazol-5-yl)benzyl)pyrrolidine-2-carboxamide] | < 50 |
| Cc1ncsc1-c1ccc(CNC(=O)[C@@H]2C[C@@H](O)CN2C(=O)[C@@H](NC(=O)CCCCCCC(=O)N(C)CCOc2ccc(/C(=C(/CCCl)c3ccccc3)c3ccccc3)cc2)C(C)(C)C)cc1 [SIAIS180033, N1-(2-(4-((Z)-4-chloro-1,2-diphenylbut-1-en-1-yl)phenoxy)ethyl)-N8-((S)-1-((2S,4R)-4-hydroxy-2-((4-(4-methylthiazol-5-yl)benzyl)carbamoyl)pyrrolidin-1-yl)-3,3-dimethyl-1-oxobutan-2-yl)-N1-methyloctanediamide] | < 50 |
| Cc1ncsc1-c1ccc(CNC(=O)[C@@H]2C[C@@H](O)CN2C(=O)[C@@H](NC(=O)CCN2CCN(CCC(=O)NCCOc3ccc(C(=C(CCCl)c4ccccc4)c4ccc(O)cc4)cc3)CC2)C(C)(C)C)cc1 [SIAIS208107, (2S,4R)-1-((S)-2-(3-(4-(3-((2-(4-(4-chloro-1-(4-hydroxyphenyl)-2-phenylbut-1-en-1-yl)phenoxy)ethyl)amino)-3-oxopropyl)piperazin-1-yl)propanamido)-3,3-dimethylbutanoyl)-4-hydroxy-N-(4-(4-methylthiazol-5-yl)benzyl)pyrrolidine-2-carboxamide] | < 200 |
| Cc1ncsc1-c1ccc(CNC(=O)[C@@H]2C[C@@H](O)CN2C(=O)[C@@H](NC(=O)CCCCCCCC(=O)N(C)CCOc2ccc(/C(=C(/CCCl)c3ccccc3)c3ccccc3)cc2)C(C)(C)C)cc1 [SIAIS180035, N1-(2-(4-((Z)-4-chloro-1,2-diphenylbut-1-en-1-yl)phenoxy)ethyl)-N9-((S)-1-((2S,4R)-4-hydroxy-2-((4-(4-methylthiazol-5-yl)benzyl)carbamoyl)pyrrolidin-1-yl)-3,3-dimethyl-1-oxobutan-2-yl)-N1-methylnonanediamide] | < 200 |
| O=C(CCCCNc1cccc2c1C(=O)N(C1CCC(=O)NC1=O)C2=O)NCCOc1ccc(C(=C(CCCl)c2ccccc2)c2ccc(O)cc2)cc1 (stereo not shown) [SIAIS208144, N-(2-(4-(4-chloro-1-(4-hydroxyphenyl)-2-phenylbut-1-en-1-yl)phenoxy)ethyl)-5-((2-(2,6-dioxopiperidin-3-yl)-1,3-dioxoisoindolin-4-yl)amino)pentanamide] | < 100 |
| Cc1ncsc1-c1ccc(CNC(=O)[C@@H]2C[C@@H](O)CN2C(=O)[C@@H](NC(=O)CCCCCCCCC(=O)N(C)CCOc2ccc(/C(=C(/CCCl)c3ccccc3)c3ccccc3)cc2)C(C)(C)C)cc1 [SIAIS180036, N1-(2-(4-((Z)-4-chloro-1,2-diphenylbut-1-en-1-yl)phenoxy)ethyl)-N10-((S)-1-((2S,4R)-4-hydroxy-2-((4-(4-methylthiazol-5-yl)benzyl)carbamoyl)pyrrolidin-1-yl)-3,3-dimethyl-1-oxobutan-2-yl)-N1-methyldecanediamide] | < 200 |

More lines, now with the values ahead:

| DC50 [nM] | Structure (SMILES) |
| --- | --- |
| < 50 | CCC(=C(c1ccc(O)cc1)c1ccc(OCCNC(=O)CCN2CCN(CCNc3cccc4c3C(=O)N(C3CCC(=O)NC3=O)C4=O)CC2)cc1)c1ccc(O)cc1 (stereo not shown) [SIAIS208172, N-(2-(4-(1,2-bis(4-hydroxyphenyl)but-1-en-1-yl)phenoxy)ethyl)-3-(4-(2-((2-(2,6-dioxopiperidin-3-yl)-1,3-dioxoisoindolin-4-yl)amino)ethyl)piperazin-1-yl)propanamide] |
| < 50 | Cc1ncsc1-c1ccc(CNC(=O)[C@@H]2C[C@@H](O)CN2C(=O)[C@@H](NC(=O)CCOCCOCCOCCC(=O)N(C)CCOc2ccc(/C(=C(/CCCl)c3ccccc3)c3ccccc3)cc2)C(C)(C)C)cc1 [SIAIS180024, (2S,4R)-1-((S)-2-(tert-butyl)-19-(4-((Z)-4-chloro-1,2-diphenylbut-1-en-1-yl)phenoxy)-17-methyl-4,16-dioxo-7,10,13-trioxa-3,17-diazanonadecanoyl)-4-hydroxy-N-(4-(4-methylthiazol-5-yl)benzyl)pyrrolidine-2-carboxamide] |
| < 50 | Cc1ncsc1-c1ccc(CNC(=O)[C@@H]2C[C@@H](O)CN2C(=O)[C@@H](NC(=O)CCOCCOCCOCCOCCOCCC(=O)N(C)CCOc2ccc(/C(=C(/CCCl)c3ccccc3)c3ccccc3)cc2)C(C)(C)C)cc1 [SIAIS180022, N1-(2-(4-((Z)-4-chloro-1,2-diphenylbut-1-en-1-yl)phenoxy)ethyl)-N19-((S)-1-((2S,4R)-4-hydroxy-2-((4-(4-methylthiazol-5-yl)benzyl)carbamoyl)pyrrolidin-1-yl)-3,3-dimethyl-1-oxobutan-2-yl)-N1-methyl-4,7,10,13,16-pentaoxanonadecanediamide] |
| < 50 | Cc1ncsc1-c1ccc(CNC(=O)[C@@H]2C[C@@H](O)CN2C(=O)[C@@H](NC(=O)CCCCCCCC(=O)N2CCN(CCOc3ccc(C(=C(CCCl)c4ccccc4)c4ccc(O)cc4)cc3)CC2)C(C)(C)C)cc1 [SIAIS251046, (2S,4R)-1-((S)-2-(9-(4-(2-(4-(4-chloro-1-(4-hydroxyphenyl)-2-phenylbut-1-en-1-yl)phenoxy)ethyl)piperazin-1-yl)-9-oxononanamido)-3,3-dimethylbutanoyl)-4-hydroxy-N-(4-(4-methylthiazol-5-yl)benzyl)pyrrolidine-2-carboxamide] |
| < 50 | Cc1ncsc1-c1ccc(CNC(=O)[C@@H]2C[C@@H](O)CN2C(=O)[C@@H](NC(=O)CCOCCOCCC(=O)N(C)CCOc2ccc(/C(=C(/CCCl)c3ccccc3)c3ccccc3)cc2)C(C)(C)C)cc1 [SIAIS180023, (2S,4R)-1-((S)-2-(tert-butyl)-16-(4-((Z)-4-chloro-1,2-diphenylbut-1-en-1-yl)phenoxy)-14-methyl-4,13-dioxo-7,10-dioxa-3,14-diazahexadecanoyl)-4-hydroxy-N-(4-(4-methylthiazol-5-yl)benzyl)pyrrolidine-2-carboxamide] |
